# Assay results reported in patent US10111885B2, “Compositions and therapeutic methods for the treatment of complement-associated diseases” (Resverlogix Corp., priority 2015, dated 2018).
# Legend:
# Type in all cases: in vivo, human
# [1] = test system: alternative complement pathway activity; test: Complement alternative pathway (AH50) assay on clinical serum samples; conditions: ASSURE trial, 26 weeks vs baseline
# Experimental: The method can be used to determine the effect of compounds, including those in the present invention, on the activity of the classical and alternative complement system in clinical samples. […] Using the CH50 screening assay to detect the hemolysis of sheep erythrocytes sensitized by specific antibodies, the hemolytic activity of the complement system in serum samples from treated and untreated subjects was measured. Likewise, using specific conditions to activate only the alternative pathway (AH50), activity of the complement response was measured. The degree of complement activation was measured at baseline and terminally to determine if there were any changes in the function of the complement system following drug treatment (FIG. 7). Reduced function of the complement system constitutes a positive result.
# [2] = test system: Complement component C8 beta chain; test: Plasma protein quantitation by LC-MRM/MS, ASSURE trial; conditions: week 26 vs. baseline
# Experimental: (§1) The method can be used to determine the effect of compounds, including those in the present invention, on the levels of various analytes found in plasma.
# (§2) Using mass spectrometric methods, including multiple reaction monitoring (MRM) mass spectrometry (MRM-MS), each sample is analyzed for the presence and amount of 43 different plasma proteins. The changes in values for each protein analyte are calculated versus the baseline measure, and statistically significant (p<0.05) and trending (0.10>p>0.05) values are reported (Table 9). Downregulation of expression of components of the complement cascade will result in reduced activity of the pathway and thus will constitute a positive result.
# Complement C5 [3] = test: as above; conditions: week 26 vs. baseline
# Experimental: as §1, §2
# Complement factor B [4] = test: as above; conditions: week 26 vs. baseline, trending p 0.06
# Experimental: as §1, §2
# Complement C4-B = test: as above; conditions: week 26 vs. baseline
# Experimental: as §1, §2
# [5] = test system: Complement C1r subcomponent; test: as above; conditions: week 26 vs. baseline
# Experimental: as §1, §2
# Complement C3 = test: as above; conditions: week 26 vs. baseline
# Experimental: as §1, §2
# Complement factor H [6] = test: as above; conditions: week 26 vs. baseline
# Experimental: as §1, §2
# Complement factor I [7] = test: as above; conditions: week 26 vs. baseline
# Experimental: as §1, §2
# Complement component C9 [8] = test: as above; conditions: week 26 vs. baseline
# Experimental: as §1, §2
# [9] = test system: Complement component C8 alpha chain; test: as above; conditions: week 26 vs. baseline
# Experimental: as §1, §2
# C-reactive protein = test: SOMAscan protein quantitation in clinical samples, ASSURE trial; conditions: 200 mg/day, week 26 vs. baseline
# Experimental: (§3) In this example, plasma samples from human subjects treated with placebo or RVX000222 are analyzed by the SOMAscan™ assay (SomaLogic). The method can be used to determine the effect of compounds, including those in the present invention, on the abundance of proteins, including complement components, in clinical samples. […] Using the SOMAscan™ technology, each sample is analyzed for the relative presence and amount of 1,310 different proteins. The changes in values for each protein analyte are calculated versus the baseline measure, and statistically significant (p<0.05) values are reported (Table 10). Downregulation of expression of components of the complement cascade will result in reduced activity of the pathway and thus will constitute a positive result.
# [10] = test system: Complement C1s subcomponent; test: as above; conditions: 200 mg/day, week 26 vs. baseline
# Experimental: as §3
# [11] = test system: Mannan-binding lectin serine protease 1; test: as above; conditions: 200 mg/day, week 26 vs. baseline
# Experimental: as §3
# Complement C2 = test: as above; conditions: 200 mg/day, week 26 vs. baseline
# Experimental: as §3
# Complement C5 [12] = test: as above; conditions: 200 mg/day, week 26 vs. baseline
# Experimental: as §3
# Complement factor B [13] = test: as above; conditions: 200 mg/day, week 26 vs. baseline
# Experimental: as §3
# [14] = test system: Complement decay-accelerating factor; test: as above; conditions: 200 mg/day, week 26 vs. baseline
# Experimental: as §3
# Complement component C8 = test: as above; conditions: 200 mg/day, week 26 vs. baseline
# Experimental: as §3
# [15] = test system: Mannose-binding protein C; test: as above; conditions: 200 mg/day, week 26 vs. baseline
# Experimental: as §3
# Complement factor H [16] = test: as above; conditions: 200 mg/day, week 26 vs. baseline
# Experimental: as §3
# Complement factor I [17] = test: as above; conditions: 200 mg/day, week 26 vs. baseline
# Experimental: as §3
# [18] = test system: Complement C5b-C6 complex; test: as above; conditions: 200 mg/day, week 26 vs. baseline
# Experimental: as §3
# Complement component C6 = test: as above; conditions: 200 mg/day, week 26 vs. baseline
# Experimental: as §3
# Complement component C9 [19] = test: as above; conditions: 200 mg/day, week 26 vs. baseline
# Experimental: as §3
# Complement C3b = test: as above; conditions: 200 mg/day, week 26 vs. baseline
# Experimental: as §3
# C5a anaphylatoxin = test: as above; conditions: 200 mg/day, week 26 vs. baseline
# Experimental: as §3
smiles,measurement,setting,value
"COc1cc(OC)c2c(=O)[nH]c(-c3cc(C)c(OCCO)c(C)c3)nc2c1 [RVX000222, 2-(4-(2-hydroxyethoxy)-3,5-dimethylphenyl)-5,7-dimethoxyquinazolin-4(3H)-one]","complement activity in clinical samples, AHSO assay (FIG. 7A)",[1],reduces complement activity
same,Complement component C8 beta chain Change from baseline,[2],-341 ng/mL
same,Complement component C8 beta chain Percent Change from baseline,[2],−3.9%
same,Complement C5 Change from baseline,Complement C5 [3],"−2,228 ng/mL"
same,Complement C5 Percent Change from baseline,Complement C5 [3],−5.3%
same,Complement factor B Change from baseline,Complement factor B [4],"−4,259 ng/mL"
same,Complement factor B Percent Change from baseline,Complement factor B [4],−4.2%
same,Complement C4-B Change from baseline,Complement C4-B,"−7,492 ng/mL"
same,Complement C4-B Percent Change from baseline,Complement C4-B,−4.3%
same,Complement C1r subcomponent Change from baseline,[5],-571 ng/mL
same,Complement C1r subcomponent Percent Change from baseline,[5],−3.6%
same,Complement C3 Change from baseline,Complement C3,"−34,105 ng/mL"
same,Complement C3 Percent Change from baseline,Complement C3,−3.6%
same,Complement factor H Change from baseline,Complement factor H [6],"−8,710 ng/mL"
same,Complement factor H Percent Change from baseline,Complement factor H [6],−4.2%
same,Complement factor I Change from baseline,Complement factor I [7],"−1,205 ng/mL"
same,Complement factor I Percent Change from baseline,Complement factor I [7],−5.2%
same,Complement component C9 Change from baseline,Complement component C9 [8],"−5,034 ng/mL"
same,Complement component C9 Percent Change from baseline,Complement component C9 [8],−13.8%
same,Complement component C8 alpha chain Change from baseline,[9],-120 ng/mL
same,Complement component C8 alpha chain Percent Change from baseline,[9],−8.6%
same,C-reactive protein (CRP) % change vs. baseline,C-reactive protein,−43.6%
same,Complement C1s subcomponent (C1S) % change vs. baseline,[10],−6.1%
same,Mannan-binding lectin serine protease 1 (MASP1) % change vs. baseline,[11],4.8%
same,Complement C2 (C2) % change vs. baseline,Complement C2,−6.7%
same,Complement C5 (C5) % change vs. baseline,Complement C5 [12],−11.7%
same,Complement factor B (CFB) % change vs. baseline,Complement factor B [13],−6.8%
same,Complement decay-accelerating factor (CD55) % change vs. baseline,[14],−4.0%
same,Complement component C8 (C8) % change vs. baseline,Complement component C8,−10.1%
same,Mannose-binding protein C (MBL2) % change vs. baseline,[15],−14.6%
same,Complement factor H (CFH) % change vs. baseline,Complement factor H [16],−5.6%
same,Complement factor I (CFI) % change vs. baseline,Complement factor I [17],−6.4%
same,Complement C5b-C6 complex (C5 C6) % change vs. baseline,[18],−12.0%
same,Complement component C6 (C6) % change vs. baseline,Complement component C6,−14.3%
same,Complement component C9 (C9) % change vs. baseline,Complement component C9 [19],−18.3%
same,Complement C3b (C3) % change vs. baseline,Complement C3b,−52.7%
same,C5a anaphylatoxin (C5) % change vs. baseline,C5a anaphylatoxin,−28.7%
